The test system of this test is BDF1 mice, B16 melanoma ip, median survival T/C. The test is described as follows: NCI In Vivo Anticancer Drug Screen. Data for tumor model B16 Melanoma (intraperitoneal) in B6D2F1 (BDF1) mice. The note with it: endpoint: median survival time, higher = longer survival. In a few lines: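 Mice with transplantable tumors; drug vs vehicle groups; endpoint survival or tumor size; value = T/C.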

[1] abbreviates: dose: 25.0 mg/kg/injection, schedule: Q01DX009 (ip), vehicle: saline.
[2] abbreviates: dose: 50.0 mg/kg/injection, schedule: Q01DX009 (ip), vehicle: saline.
Setting [3] is: dose: 100.0 mg/kg/injection, schedule: Q01DX009 (ip), vehicle: saline.
The mark [4] stands for this setting: dose: 12.5 mg/kg/injection, schedule: Q01DX009 (ip), vehicle: Klucel (hydroxypropylcellulose) (HPC).
[5] abbreviates: dose: 50.0 mg/kg/injection, schedule: Q01DX009 (ip), vehicle: Klucel (hydroxypropylcellulose) (HPC).
Setting [6] is: dose: 50.0 mg/kg/injection, schedule: Q01DX009 (ip), vehicle: saline with Tween-80.
Setting [7] is: dose: 100.0 mg/kg/injection, schedule: Q01DX009 (ip), vehicle: saline with Tween-80.
Where [8] appears, read: dose: 200.0 mg/kg/injection, schedule: Q01DX009 (ip), vehicle: saline with Tween-80.
Where [9] appears, read: dose: 6.25 mg/kg/injection, schedule: Q01DX009 (ip), vehicle: saline with Tween-80.
Setting [10] is: dose: 12.5 mg/kg/injection, schedule: Q01DX009 (ip), vehicle: saline with Tween-80.
[11] abbreviates: dose: 100.0 mg/kg/injection, schedule: Q01DX009 (ip), vehicle: Klucel (hydroxypropylcellulose) (HPC).

Several values for one entry are separate records, joined by “and”; a condition that tells them apart may be missing. Equal entries are not always repeated. Inconclusive results and toxic doses are left out.

Turning to `CN1C(=O)OC(C)(C)C1=O`, the T/C (dose: 0.78 mg/kg/injection, schedule: Q04DX003 (ip), vehicle: saline) was 95 % of control; the T/C (dose: 1.56 mg/kg/injection, schedule: Q04DX003 (ip), vehicle: saline) is 100 % of control; the T/C (dose: 3.12 mg/kg/injection, schedule: Q04DX003 (ip), vehicle: saline) is 105 % of control; the T/C (dose: 6.25 mg/kg/injection, schedule: Q04DX003 (ip), vehicle: saline) was 105 % of control; the T/C (dose: 12.5 mg/kg/injection, schedule: Q04DX003 (ip), vehicle: saline) is 100 % of control; the T/C under setting [1] is 110 % of control. The T/C is 100 % of control under setting [2]; 100 % of control under setting [3]; 97 % of control (dose: 200.0 mg/kg/injection, schedule: Q01DX009 (ip), vehicle: saline); 94 % of control (dose: 400.0 mg/kg/injection, schedule: Q01DX009 (ip), vehicle: saline).
For the compound `NC(=O)Cn1cnc2c(=S)nc[nH]c21`, the T/C reads like this: (dose: 12.5 mg/kg/injection, schedule: Q04DX003 (ip), vehicle: saline with Tween-80) 95 % of control; (dose: 25.0 mg/kg/injection, schedule: Q04DX003 (ip), vehicle: saline with Tween-80) 100 % of control.
For `O=C(Nc1cccc(C(F)(F)F)c1)c1cc(Br)cc(Br)c1O`, the T/C was 108 % of control under setting [4]; 106 % of control (dose: 25.0 mg/kg/injection, schedule: Q01DX009 (ip), vehicle: Klucel (hydroxypropylcellulose) (HPC)); 110 % of control under setting [5].
As to `O=[N+]([O-])c1ccc2ccccc2c1-c1c([N+](=O)[O-])ccc2ccccc12`, the T/C by setting is: under setting [6], 97 % of control; under setting [7], 101 % of control; under setting [8], 97 % of control.
Take `CC(C)=CCNc1ncnc2c1ncn2C1OC(CO)C(O)C1O` (stereo unspecified): the T/C under setting [9] is 102 % of control; the T/C (dose: 6.25 mg/kg/injection, schedule: Q01DX009 (ip), vehicle: saline) is 101 % of control; the T/C under setting [10] is 103 % of control; the T/C (dose: 12.5 mg/kg/injection, schedule: Q01DX009 (ip), vehicle: saline) was 96 % of control; the T/C (dose: 25.0 mg/kg/injection, schedule: Q01DX009 (ip), vehicle: saline with Tween-80) is 87 % of control and 107 % of control; the T/C under setting [1] is 103 % of control. In addition, the T/C was 87 % of control and 98 % of control under setting [6]; 93 % of control under setting [2]; 97 % of control under setting [7]; 115 % of control under setting [3].
Regarding `CCC1OC2(C)C(O)C(/C=C/C=C/C=C/c3oc(=O)cc(OC)c3C)OC1(C)C2OC(C)=O` (stereo unspecified), the T/C (dose: 0.5 mg/kg/injection, schedule: Q01DX009 (ip), vehicle: Klucel (hydroxypropylcellulose) (HPC)) is 94 % of control; the T/C (dose: 1.0 mg/kg/injection, schedule: Q01DX009 (ip), vehicle: Klucel (hydroxypropylcellulose) (HPC)) is 93 % of control; the T/C (dose: 2.0 mg/kg/injection, schedule: Q01DX009 (ip), vehicle: Klucel (hydroxypropylcellulose) (HPC)) is 94 % of control.
Regarding `Cc1nc2ccccc2nc1CBr`, the T/C is, setting by setting: (dose: 0.4 mg/kg/injection, schedule: Q01DX009 (ip), vehicle: saline with Tween-80) 104 % of control; (dose: 0.8 mg/kg/injection, schedule: Q01DX009 (ip), vehicle: saline with Tween-80) 104 % of control; (dose: 0.8 mg/kg/injection, schedule: Q01DX009 (ip), vehicle: saline) 95 % of control; (dose: 1.6 mg/kg/injection, schedule: Q01DX009 (ip), vehicle: Klucel (hydroxypropylcellulose) (HPC)) 93 % of control; (dose: 1.6 mg/kg/injection, schedule: Q01DX009 (ip), vehicle: saline) 93 % of control; (dose: 3.12 mg/kg/injection, schedule: Q01DX009 (ip), vehicle: Klucel (hydroxypropylcellulose) (HPC)) 100 % of control. Also, the T/C runs as follows: (dose: 3.2 mg/kg/injection, schedule: Q01DX009 (ip), vehicle: saline with Tween-80) 119 % of control; (dose: 3.2 mg/kg/injection, schedule: Q01DX009 (ip), vehicle: saline) 95 % of control; (dose: 6.25 mg/kg/injection, schedule: Q01DX009 (ip), vehicle: Klucel (hydroxypropylcellulose) (HPC)) 87 % of control; under setting [9], 113 % of control; (dose: 6.3 mg/kg/injection, schedule: Q01DX009 (ip), vehicle: saline) 102 % of control; under setting [4], 96 % of control. Further, under setting [10], the T/C is 108 % of control.
In the case of `CS(=O)(=O)Nc1ccc(Nc2c3ccccc3nc3cc(Cl)ccc23)cc1`, the T/C (dose: 3.0 mg/kg/injection, schedule: Q01DX009 (ip), vehicle: saline with Tween-80) is 152 % of control; the T/C (dose: 37.5 mg/kg/injection, schedule: Q01DX001 (ip), vehicle: saline sonified) was 169 % of control; the T/C (dose: 75.0 mg/kg/injection, schedule: Q01DX001 (ip), vehicle: saline sonified) is 152 % of control.
As for `O=c1[nH]c(Cl)ncc1F`, for the setting “dose: 37.5 mg/kg/injection, schedule: Q01DX009 (ip), vehicle: Klucel (hydroxypropylcellulose) (HPC)”, the T/C was 87 % of control.
As to `O=C1/C(=C\c2ccc([N+](=O)[O-])cc2)CS(=O)(=O)C/C1=C/c1ccc([N+](=O)[O-])cc1`, the T/C by setting is: under setting [5], 91 % of control; under setting [11], 97 % of control; (dose: 200.0 mg/kg/injection, schedule: Q01DX009 (ip), vehicle: Klucel (hydroxypropylcellulose) (HPC)) 102 % of control.
On to `Cc1cccc(C(N)=S)n1`, for which the T/C runs as follows: under setting [5], 110 % of control; under setting [11], 100 % of control.
Take `c1cncc(C2OCCO2)c1`: the T/C was 98 % of control under setting [7]; 89 % of control under setting [8]; 89 % of control (dose: 400.0 mg/kg/injection, schedule: Q01DX009 (ip), vehicle: saline with Tween-80).

Source of the values: PubChem BioAssay AID192 (DTP/NCI, 2004).
